Test results: US11420958B2, “Aryl and heteroaryl substituted indole compounds” (BRISTOL-MYERS SQUIBB COMPANY, priority 2017, dated 2022)

How the values were obtained:
Assay type in all cases: cell-based
[1] = molecular target: human TLR7 (Homo sapiens (Human), UniProt Q9NYK1); experiment: TLR7 inhibition reporter assay (HEK-Blue, SEAP); conditions: HEK-Blue cells overexpressing human TLR7, gardiquimod 7.5 μM stimulation
Summary of the method: (§1)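 Percent inhibition of agonist-induced SEAP secretion was scored against DMSO-only and reference-inhibitor controls. Stimulation lasted 22 h at 37 °C following 30 min compound pre-exposure (0.05 nM–50 μM); ligands were gardiquimod 7.5 μM, R848 15.9 μM and ODN2006 5 nM for TLR7, 8 and 9.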

[2] = molecular target: human TLR8 (Homo sapiens (Human), UniProt Q9NR97); experiment: TLR8 inhibition reporter assay (HEK-Blue, SEAP); conditions: HEK-Blue cells overexpressing human TLR8, R848 15.9 μM stimulation
Summary of the method: as §1

[3] = molecular target: human TLR9 (Homo sapiens (Human), UniProt Q9NR96); experiment: TLR9 inhibition reporter assay (HEK-Blue, SEAP); conditions: HEK-Blue cells overexpressing human TLR9, ODN2006 5 nM stimulation
Summary of the method: as §1

Sequence of human TLR7 (Q9NYK1 27-1049): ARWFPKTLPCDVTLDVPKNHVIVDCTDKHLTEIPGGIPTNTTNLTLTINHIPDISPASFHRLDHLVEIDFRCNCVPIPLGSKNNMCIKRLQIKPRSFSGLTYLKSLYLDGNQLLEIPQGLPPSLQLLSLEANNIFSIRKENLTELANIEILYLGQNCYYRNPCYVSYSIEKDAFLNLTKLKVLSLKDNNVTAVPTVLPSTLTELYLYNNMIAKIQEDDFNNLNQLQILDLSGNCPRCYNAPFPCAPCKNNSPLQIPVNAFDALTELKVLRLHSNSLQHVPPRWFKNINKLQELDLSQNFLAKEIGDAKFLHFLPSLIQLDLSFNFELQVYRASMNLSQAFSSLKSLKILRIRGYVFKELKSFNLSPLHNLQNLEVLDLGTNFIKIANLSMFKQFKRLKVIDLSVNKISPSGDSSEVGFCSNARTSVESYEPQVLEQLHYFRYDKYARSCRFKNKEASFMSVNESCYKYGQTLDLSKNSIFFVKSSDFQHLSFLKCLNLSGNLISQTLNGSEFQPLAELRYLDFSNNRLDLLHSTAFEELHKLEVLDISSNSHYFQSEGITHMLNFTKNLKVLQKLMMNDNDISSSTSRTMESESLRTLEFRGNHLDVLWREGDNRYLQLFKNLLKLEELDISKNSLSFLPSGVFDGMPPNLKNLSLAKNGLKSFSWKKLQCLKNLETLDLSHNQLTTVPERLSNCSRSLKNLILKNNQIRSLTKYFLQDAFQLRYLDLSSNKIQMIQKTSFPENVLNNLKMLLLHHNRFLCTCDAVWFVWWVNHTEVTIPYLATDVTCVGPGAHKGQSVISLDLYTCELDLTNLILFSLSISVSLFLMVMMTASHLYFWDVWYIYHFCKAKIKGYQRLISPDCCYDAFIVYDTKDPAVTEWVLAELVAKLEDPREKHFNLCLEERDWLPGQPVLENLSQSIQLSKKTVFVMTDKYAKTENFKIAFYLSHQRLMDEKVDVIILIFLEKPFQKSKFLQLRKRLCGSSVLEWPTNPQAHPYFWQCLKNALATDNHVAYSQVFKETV
Sequence of human TLR8 (Q9NR97 27-1041): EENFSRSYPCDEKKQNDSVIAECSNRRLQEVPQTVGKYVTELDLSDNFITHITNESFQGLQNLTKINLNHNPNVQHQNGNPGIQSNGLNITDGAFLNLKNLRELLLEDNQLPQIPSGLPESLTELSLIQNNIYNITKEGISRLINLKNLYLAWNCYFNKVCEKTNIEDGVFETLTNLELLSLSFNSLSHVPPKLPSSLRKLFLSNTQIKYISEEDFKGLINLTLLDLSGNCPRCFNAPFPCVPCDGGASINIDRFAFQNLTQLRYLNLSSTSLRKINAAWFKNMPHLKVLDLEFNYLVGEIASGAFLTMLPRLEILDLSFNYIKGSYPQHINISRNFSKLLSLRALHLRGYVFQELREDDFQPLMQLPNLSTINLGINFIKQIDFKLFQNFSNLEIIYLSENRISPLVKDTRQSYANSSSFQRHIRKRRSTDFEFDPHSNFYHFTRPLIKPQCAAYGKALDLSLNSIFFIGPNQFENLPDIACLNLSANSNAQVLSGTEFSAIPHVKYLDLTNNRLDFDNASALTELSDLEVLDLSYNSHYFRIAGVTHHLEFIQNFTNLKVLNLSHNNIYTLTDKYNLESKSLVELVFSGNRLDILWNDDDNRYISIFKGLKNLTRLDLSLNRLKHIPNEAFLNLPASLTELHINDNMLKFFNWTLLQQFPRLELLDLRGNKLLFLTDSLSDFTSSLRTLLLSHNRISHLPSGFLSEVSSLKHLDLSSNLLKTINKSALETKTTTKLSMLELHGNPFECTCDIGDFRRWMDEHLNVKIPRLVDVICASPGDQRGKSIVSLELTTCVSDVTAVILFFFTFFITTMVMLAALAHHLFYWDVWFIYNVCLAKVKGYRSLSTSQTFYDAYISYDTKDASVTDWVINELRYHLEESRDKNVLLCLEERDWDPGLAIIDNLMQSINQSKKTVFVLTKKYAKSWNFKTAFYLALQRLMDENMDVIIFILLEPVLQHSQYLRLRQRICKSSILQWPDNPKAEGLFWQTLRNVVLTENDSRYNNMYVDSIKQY
Sequence of human TLR9 (Q9NR96 26-1032): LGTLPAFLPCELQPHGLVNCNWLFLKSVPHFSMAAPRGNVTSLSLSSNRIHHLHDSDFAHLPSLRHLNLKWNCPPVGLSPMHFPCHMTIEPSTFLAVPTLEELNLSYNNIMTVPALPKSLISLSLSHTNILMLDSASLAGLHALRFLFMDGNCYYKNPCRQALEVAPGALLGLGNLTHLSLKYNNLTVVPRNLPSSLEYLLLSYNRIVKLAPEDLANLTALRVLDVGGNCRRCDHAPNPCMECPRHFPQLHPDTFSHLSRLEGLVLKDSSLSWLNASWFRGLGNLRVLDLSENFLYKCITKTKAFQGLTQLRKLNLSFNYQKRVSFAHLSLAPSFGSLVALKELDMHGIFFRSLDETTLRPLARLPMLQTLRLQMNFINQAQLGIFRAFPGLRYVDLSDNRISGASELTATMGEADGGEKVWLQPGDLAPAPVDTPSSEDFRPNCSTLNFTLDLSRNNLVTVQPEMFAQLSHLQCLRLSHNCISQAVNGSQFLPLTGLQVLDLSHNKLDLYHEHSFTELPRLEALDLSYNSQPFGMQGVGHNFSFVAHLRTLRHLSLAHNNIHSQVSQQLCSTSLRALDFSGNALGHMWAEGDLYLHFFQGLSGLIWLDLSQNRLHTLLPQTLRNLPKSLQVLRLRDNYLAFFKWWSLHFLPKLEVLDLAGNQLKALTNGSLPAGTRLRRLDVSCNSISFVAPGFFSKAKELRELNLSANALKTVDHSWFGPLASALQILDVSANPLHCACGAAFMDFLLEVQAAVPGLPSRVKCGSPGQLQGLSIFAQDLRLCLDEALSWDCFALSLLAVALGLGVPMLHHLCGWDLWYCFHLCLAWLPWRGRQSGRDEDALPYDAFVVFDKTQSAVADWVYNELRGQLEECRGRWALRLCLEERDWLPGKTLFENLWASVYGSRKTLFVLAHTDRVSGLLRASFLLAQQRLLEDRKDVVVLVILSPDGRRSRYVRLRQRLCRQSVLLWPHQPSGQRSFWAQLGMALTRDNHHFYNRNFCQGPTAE

Compound | IC50 [1] [µM] | IC50 [2] [µM] | IC50 [3] [µM]
Cc1cc(-c2[nH]c3ccc(-c4ccc(NC(C)C)nc4)cc3c2C(C)C)ccn1 [Example 247, N-isopropyl-5-(3-isopropyl-2-(2-methylpyridin-4-yl)-1H-indol-5-yl)pyridin-2-amine] | 0.084 | 0.0064 | 5.54
COc1ccc(-c2[nH]c3ccc(-c4ccc(N5CCN(C(C)C)CC5)cc4)cc3c2C(C)C)cc1OC [Example 382, 2-(3,4-dimethoxyphenyl)-3-isopropyl-5-(4-(4-isopropylpiperazin-1-yl)phenyl)-1H-indole] | 0.157 | 0.032 | 0.917
Cc1cc(-c2[nH]c3ccc(-c4nnc(C5CCN(C)CC5)o4)cc3c2C(C)C)cn2ncnc12 [Example 367, 2-(3-isopropyl-2-(8-methyl-[1,2,4]triazolo[1,5-a]pyridin-6-yl)-1H-indol-5-yl)-5-(1-methylpiperidin-4-yl)-1,3,4-oxadiazole] | 0.00037 | 0.0006 | 0.673
COc1ccc(-c2[nH]c3ccc(-c4nnc(CN5CC6CNCC6C5)o4)cc3c2C(C)C)cc1OC (stereo not drawn) [Example 107, 2-(2-(3,4-dimethoxyphenyl)-3-isopropyl-1H-indol-5-yl)-5-((hexahydropyrrolo[3,4-c]pyrrol-2(1H)-yl)methyl)-1,3,4-oxadiazole] | 0.228 | 0.023 | 2.21
CNC(=O)CN1CCc2cc(-c3ccc4[nH]c(-c5cc(C)nc(C)c5)c(C(C)C)c4c3)sc2C1 [Example 330, 2-(2-(2-(2,6-dimethylpyridin-4-yl)-3-isopropyl-1H-indol-5-yl)-4,7-dihydrothieno[2,3-c]pyridin-6(5H)-yl)-N-methylacetamide] | 0.023 | 0.016 | 2.21
Cc1cc(-c2[nH]c3ccc(-c4nnc(C5CN6CCC5CC6)o4)cc3c2C(C)C)cc(C)n1 (stereo not drawn) [Example 296, 2-(2-(2,6-dimethylpyridin-4-yl)-3-isopropyl-1H-indol-5-yl)-5-(quinuclidin-3-yl)-1,3,4-oxadiazole] | 0.0048 | 0.0017 | 0.31
COc1ccc(-c2[nH]c3ccc(-c4cccc(C(=O)NCC(N)=O)c4)cc3c2CC(F)(F)F)cc1OC [Example 28, N-(2-amino-2-oxoethyl)-3-(2-(3,4-dimethoxyphenyl)-3-(2,2,2-trifluoroethyl)-1H-indol-5-yl)benzamide] | 0.587 | 0.094 | 32.6
Cc1cc(-c2[nH]c3ccc(-c4ccc(N)nn4)cc3c2C(C)C)cc(C)n1 [Example 349, 6-(2-(2,6-dimethylpyridin-4-yl)-3-isopropyl-1H-indol-5-yl)pyridazin-3-amine] | 0.0086 | 0.0056 | 2.12
COc1ccc(-c2[nH]c3ccc(-c4nnc(C5CCN(CC(=O)N(C)C)CC5)o4)cc3c2CC(F)(F)F)cc1OC [Example 83, 2-(4-(5-(2-(3,4-dimethoxyphenyl)-3-(2,2,2-trifluoroethyl)-1H-indol-5-yl)-1,3,4-oxadiazol-2-yl)piperidin-1-yl)-N,N-dimethylacetamide] | 0.158 | 0.04 | 2.55
CC(C)c1c(-c2ccnc3[nH]ncc23)[nH]c2ccc(-c3nnc(C[C@@H]4CCCN4)o3)cc12 [Example 104, (S)-2-(3-isopropyl-2-(1H-pyrazolo[3,4-b]pyridin-4-yl)-1H-indol-5-yl)-5-(pyrrolidin-2-ylmethyl)-1,3,4-oxadiazole] | 0.031 | 0.0017 | 0.15
COc1ccc(-c2[nH]c3ccc(-c4cnc(N5CCN(C6CCC6)CC5)nc4)cc3c2C(C)C)cc1OC [Example 436, 5-(2-(4-cyclobutylpiperazin-1-yl)pyrimidin-5-yl)-2-(3,4-dimethoxyphenyl)-3-isopropyl-1H-indole] | 1.49 | 0.331 | 11.1
COc1ccc(-c2[nH]c3ccc(-c4cccc(C(=O)N5CCCC5C)c4)cc3c2CC(F)(F)F)cc1OC (stereo not drawn) [Example 32, (3-(2-(3,4-dimethoxyphenyl)-3-(2,2,2-trifluoroethyl)-1H-indol-5-yl)phenyl)(2-methylpyrrolidin-1-yl)methanone] | 2.62 | 1.11 | > 50
Cc1cc(-c2[nH]c3ccc(-c4ccc(NC(C)C)nc4)cc3c2C(C)C)cc(C)n1 [Example 248, 5-(2-(2,6-dimethylpyridin-4-yl)-3-isopropyl-1H-indol-5-yl)-N-isopropylpyridin-2-amine] | 0.02 | 0.0026 | 4.07
CC(C)c1c(-c2ccnc3n[nH]cc23)[nH]c2ccc(-c3nc(C(=O)NC4CCN(C(C)C)CC4)co3)cc12 [Example 183, 2-(3-isopropyl-2-(2H-pyrazolo[3,4-b]pyridin-4-yl)-1H-indol-5-yl)-N-(1-isopropylpiperidin-4-yl)oxazole-4-carboxamide] | 0.137 | 0.0058 | 0.427
Cc1cc(-c2[nH]c3ccc(-c4ccc(CO)nc4)cc3c2C(C)C)cc(C)n1 [Example 322, (5-(2-(2,6-dimethylpyridin-4-yl)-3-isopropyl-1H-indol-5-yl)pyridin-2-yl)methanol] | 0.013 | 0.027 | 45.7
Cc1cc(-c2[nH]c3ccc(-c4nnc(C(=O)NCCN(C)C)s4)cc3c2C(C)C)ccn1 [Example 133, N-(2-(dimethylamino)ethyl)-5-(3-isopropyl-2-(2-methylpyridin-4-yl)-1H-indol-5-yl)-1,3,4-thiadiazole-2-carboxamide] | 0.018 | 0.002 | 0.441
COc1ccc(-c2[nH]c3ccc(-c4ccc(N5CCC(c6ccncc6)CC5)cc4)cc3c2C(C)C)cc1OC [Example 405, 2-(3,4-dimethoxyphenyl)-3-isopropyl-5-(4-(4-(pyridin-4-yl)piperidin-1-yl)phenyl)-1H-indole] | 1.56 | 0.464 | > 50
Cc1cc(-c2[nH]c3ccc(-c4nnc([C@H]5CCCNC5)o4)cc3c2C(C)C)ccn1 [Example 69, (S)-2-(3-isopropyl-2-(2-methylpyridin-4-yl)-1H-indol-5-yl)-5-(piperidin-3-yl)-1,3,4-oxadiazole] | 0.016 | 0.0009 | 0.687
Cc1cc(-c2[nH]c3ccc(-c4nc(C(=O)NCC5CCNC5)co4)cc3c2C(C)C)cc(C)n1 (stereo not drawn) [Example 276, 2-(2-(2,6-dimethylpyridin-4-yl)-3-isopropyl-1H-indol-5-yl)-N-(pyrrolidin-3-ylmethyl)oxazole-4-carboxamide] | 0.049 | 0.026 | 1.08
CCc1c(-c2ccc(OC)c(OC)c2)[nH]c2ccc(-c3nnc(C(=O)NC4CCN(C(C)C)CC4)o3)cc12 [Example 39, 5-(2-(3,4-dimethoxyphenyl)-3-ethyl-1H-indol-5-yl)-N-(1-isopropylpiperidin-4-yl)-1,3,4-oxadiazole-2-carboxamide] | 0.093 | 0.0079 | 0.433
Cc1cc(-c2[nH]c3ccc(-c4nnc([C@@H]5CCNC5)o4)cc3c2C(C)C)ccn1 [Example 139, (R)-2-(3-isopropyl-2-(2-methylpyridin-4-yl)-1H-indol-5-yl)-5-(pyrrolidin-3-yl)-1,3,4-oxadiazole] | 0.028 | 0.0028 | 0.523
Cc1cc(-c2[nH]c3ccc(-c4nnc([C@@H]5CCCC[C@@H]5N)o4)cc3c2C(C)C)ccn1 [Example 266, (1S,2R)-2-(5-(3-isopropyl-2-(2-methylpyridin-4-yl)-1H-indol-5-yl)-1,3,4-oxadiazol-2-yl)cyclohexan-1-amine] | 0.038 | 0.0005 | 0.781
Cc1cc(-c2[nH]c3ccc(-c4nnc(C5CCN(C(=O)CN(C)C)CC5)[nH]4)cc3c2C(C)C)ccn1 [Example 186, 2-(dimethylamino)-1-(4-(5-(3-isopropyl-2-(2-methylpyridin-4-yl)-1H-indol-5-yl)-4H-1,2,4-triazol-3-yl)piperidin-1-yl)ethan-1-one] | 0.028 | 0.016 | 1.5
Cc1cc(-c2[nH]c3ccc(-c4nc5c(s4)CN(C(=O)C4CC(=O)N(C)C4)CC5)cc3c2C(C)C)cc(C)n1 (stereo not drawn) [Example 364, 4-(2-(2-(2,6-dimethylpyridin-4-yl)-3-isopropyl-1H-indol-5-yl)-4,5,6,7-tetrahydrothiazolo[5,4-c]pyridine-5-carbonyl)-1-methylpyrrolidin-2-one] | 0.02 | 0.011 | > 50
Cc1cc(-c2[nH]c3ccc(-c4nnc(C5CCCN(C(C)C)C5)[nH]4)cc3c2C(C)C)ccn1 (stereo not drawn) [Example 204, 3-isopropyl-5-(5-(1-isopropylpiperidin-3-yl)-4H-1,2,4-triazol-3-yl)-2-(2-methylpyridin-4-yl)-1H-indole] | 0.067 | 0.0057 | 0.218
C#CCNCc1nnc(-c2ccc3[nH]c(-c4ccc(OC)c(OC)c4)c(C(C)C)c3c2)o1 [Example 110, N-((5-(2-(3,4-dimethoxyphenyl)-3-isopropyl-1H-indol-5-yl)-1,3,4-oxadiazol-2-yl)methyl)prop-2-yn-1-amine] | 0.917 | 0.734 | > 50
CCc1c(-c2ccc(OC)c(OC)c2)[nH]c2ccc(-c3noc([C@@H](N)CCCCN)n3)cc12 [Example 464, (S)-1-(3-(2-(3,4-dimethoxyphenyl)-3-ethyl-1H-indol-5-yl)-1,2,4-oxadiazol-5-yl)pentane-1,5-diamine] | 1.65 | 0.183 | 2.73
